The subject of test [1] is NRP1 TMD. Put plainly: surface plasmon resonance (SPR, Biacore) with NRP1 TMD. The format is binding. The settings on record: Biacore 2000, 20°C, streptavidin CM5 chip, 10 mM HEPES pH 7.4, 150 mM NaCl, 0.005% P20, 3 mM LDAO, flow 5 μl/min. How it is done:
A surface plasmon resonance (SPR, Biacore) analysis was also conducted with a synthetic biotinylated PlexA1 peptide immobilized on the chip. […] Due to the high hydrophobic nature and difficulty to produce TMD peptides we only performed this experiment with TMD peptides for which we had experience of successful synthesis. […]
assigned to the “highest Plxna1” group and conversely (Abcam, ab32960-100) was added to the sections in those with a Plxna1 expression below the median to the blocking solution at 4°C overnight at a dilution of 1/100.
“lowest Plxna1” group. […]
For the “TCGA dataset” [50, 51], data were The tissue was rinsed with PBS (3 × 5 minutes) and downloaded from the TCGA data portal (https://tcga- then the endogenous peroxidases were blocked with 1% data.nci.nih.gov/tcga/tcgaHome2.jsp; NCI, USA). RMA H2O2 solution (Sigma, #H1009) in methanol solution normalized gene expression profiles measured with during 20 minutes. […]
Factor (recombinant human) 0.1 ng/ml, Basic Fibroblast RNA was treated with DNase I (Invitrogen) and reverse Growth Factor (recombinant human) 1 ng/ml, Heparin 90 transcribed using the High Capacity cDNA RT Kit μg/ml, Hydrocortisone 1 μg / ml. […] Samples were analyzed using […]
On the technique in general: SPR reads the build-up and loss of mass on a sensor chip optically.

The subject of test [2] is NCH644 glioma stem cell tumors in nude mice. Put plainly: NCH644-mCherry xenograft in nude mice, cells pre-incubated with peptide. The format is in vivo, human cells in mouse. The following applies: 5 days. The method, then:
Mounting evidence supports a crucial role of cancer stem cells in the initiation or relapse of tumors. This is particularly the case for gliomas. Thus, we decided to evaluate to what extent MTP-PlexA1 would affect glioma stem cell (GSC) growth. To this end, we used the NCH644 human cell line derived from a patient biopsy. […] We next performed a sphere forming assay in which cells were plated into 96-well plates at a low density (30 cells per well) to monitor production of clones from individual cells growing as non-adherent gliomaspheres. A minimum of 30 cells per well was required to allow sufficient sphere production (composed of at least 8 cells) in a time frame compatible with drug testing. Visual control of sphere formation on a daily basis confirmed that cellular edifices were arising from single cells and not due to cell clumping. […] To address whether this inhibitory effect is sufficient to impede tumor development in vivo we performed a xenograft experiment. NCH644 GCS were grafted in the flank of nude mice in a way to obtain two bilateral tumors derived from either control cells without treatment or from cells that had been pre-incubated with MTP-PlexA1. This was done using a fluorescent version of the NCH644 cell line (mCherry-NCH644) allowing live monitoring of tumor appearance (Figure 7E). […]
Experiments were performed according to the Guide for Care and Use of Laboratory Animals (E67-6-482-21) and the European Directive with approval of the regional ethical committee (Reference AL/55/62/02/13). […] For the experiment conducted with cancer stem cell line NCH644mCherry, we performed bilateral grafting of 10^6 cells on each flank of 20 nude mice without treatment or pre-incubated for 1 hour with MTP-PlexA1 at 10–7 M. After 5 days, the fluorescence emission of developing tumors was recorded using the NightOwl system (Berthold) using appropriate excitation and emission filters (580 nm/620 nm respectively).
A general note: A xenograft is tissue or cells of one species grown in another, often human tumour cells in immunodeficient mice.

The text below walks through data of article PMC5295395, “Inhibition of PlexA1-mediated brain tumor growth and tumor-associated angiogenesis using a transmembrane domain targeting peptide” (Oncotarget, 2016).

With “TLPAIVGIGGGGGLLLLVIVAVLIAYKRK [MTP-PlexA1, synthetic transmembrane peptide mimicking the TMD of PlexA1]”, the “interaction of immobilized biotinylated PlexA1 TMD peptide with NRP1” value in test [1] is “significantly interacted with NRP1”. Moreover, the “change of number of detectable tumors” value in test [2] (NCH644 cells pre-incubated 1 h at 10–7 M, p = 0.0032, Mann Whitney) is recorded as −71.4%. Besides, the “detectable tumors after grafting pre-incubated cells” value in test [2] (NCH644 cells pre-incubated 1 h at 10–7 M, untreated control 14 tumors in 20 mice, p = 0.0032) is recorded as 4 out of 20. Also, the “size of tumors that were able to grow” value in test [2] (NCH644 cells pre-incubated, fluorescence, p = 0.4258) was “comparable to the one of the control group”.
